Legend:
[1] = tested on: Sprague Dawley rats; assay: Pulmonary function, BUXCO unrestrained whole body plethysmograph; assay type: in vivo
Procedure: For rats in the pulmonary/CNS arm, pulmonary function (respiratory frequency and tidal volume) was assessed incorporating the BUXCO Unrestrained Whole Body Plethysmograph technique. Rats were placed in a BUXCO chamber, and a 10-minute baseline-recording period was collected. Following the baseline-recording period, the rats were removed from the chambers, orally dosed and returned for a 60-minute period of data collection. At the conclusion of the experiment, the rats were removed from the chambers, and tested for modified Irwin profiling.
The respiratory signal was measured continuously for 10 minutes prior to dosing and […] post-dosing. Respiratory frequency and tidal volume were then extracted from this respiratory signal, and evaluated on a breath-by-breath basis over the course of a one-minute period. These calculated breath-by-breath values for respiratory frequency and tidal volume were averaged over 5-minute segments for the extent of the monitoring period. The time course for these values was then plotted as the mean ±standard deviation for each group studied. An analysis of variance similar to that described above for cardiovascular parameters was also performed.

[2] = tested on: Sprague Dawley rats; assay: Cardiovascular monitoring (blood pressure, heart rate) by DSI telemetry; assay type: in vivo
Procedure: For the cardiovascular/renal function arm, a Data Sciences International (DSI, St Paul, Minn.) TA11PA-C40 implant was placed in the abdominal aorta of each rat.
Cardiovascular function and motility were assessed in conscious freely moving rats using DSI telemetry recording equipment. On the day of recording, the rats were placed into metabolism cages for simultaneous urine collection. Parameters monitored included blood pressure (BP), heart rate (HR) and activity. Measurements were taken at scheduled intervals (i.e., 10 sec. of data collection once every 2 min. for each rat) over 24 hours. An appropriate baseline period of at least 30 minutes was collected prior to animal dosing. For dosing, rats were briefly removed from their cage, weighed, dosed and returned.
Blood pressure, heart rate and activity were measured for 10 seconds once every 2 minutes for 24 hours. Blood pressure and heart rate were routinely evaluated at baseline, 30 min, 1 h, 2 h, 4 h, 6 h, 8 h, 12 h, 16 h and 20 h post-administration. The last 20 minutes before the start of treatment on Day 1, time-point values were averaged and taken as the baseline value for each rat. The other time-point values were obtained by averaging data 10 minutes prior and 10 minutes post each time-point. […] An analysis of variance was performed with the factors: treatment, animal (according to treatment), time, and treatment time interaction; time incorporated all measurements on the four days. The adjusted mean values post-treatment were compared with baseline. If there was a significant treatment time interaction, tests were performed for comparing the three treatment groups for each time-point. If such a test was significant, the adjusted mean values of the treated group were compared with the concurrent vehicle group for this time-point.

[3] = tested on: Sprague Dawley rats; assay type: in vivo
Procedure: Additional CNS monitoring was performed following pulmonary function assessment in that arm of the study. Rats were returned to their home cages and at 65 minutes post-dosing, the rats were placed in Plexiglas observation cylinders. Compound treated rats were systematically compared to vehicle treated rats for behavioral, neurologic and autonomic changes according to a modification of the method described by Irwin. […] The following functions were assessed: increased/decreased motor activity, ataxia, paralysis, tremor, convulsions, abnormal respiration, enhanced salivation, skin color, abnormal feces, death, righting reflex, visual orientation, grip reflex, muscle tone, rectal body temperature, and tail pinch. Body temperatures were also recorded both prior to dosing (baseline) and during modified Irwin testing post-dosing using a Yellow Springs Instruments Telethermometer and rectal probe or equivalent. Following modified Irwin testing, rats were administered anesthesia to effect and blood was collected.
For body temperatures, CBC values, clinical chemistry values, plasma levels and organ weight ratios, means were calculated (±standard deviation or standard error of the mean) and reported where applicable. Statistical evaluations for compound related effects were performed using the Student's t test (paired) and reported as significant if p<0.05.

[4] = tested on: Sprague Dawley rats; assay: Renal function monitoring (urine collection in metabolism cages); assay type: in vivo; details: 10 and 30 mg/kg p.o., acute; males and females (FIG. 4)
Procedure: Renal function monitoring was conducted simultaneously with cardiovascular testing. Urine was collected for 0-8 and 8-24 hour time-points. Prior to telemetry data collection, DSI receivers equipped with special mounting strips were hung upside down on metabolism racks (Lab Products, Maywood, N.J.). Metabolism cages were then suspended from the DSI receivers and assembled to provide for food, water, and urine collection. […] Rats were weighed and placed into the recording metabolism cages for a baseline collection period (i.e., 30 minutes). After baseline, each rat was removed, dosed and returned. Pre-weighed collection tubes were placed under each metabolism cage. At 8 hours, the collection tubes were removed, weighed, and replaced with another set of pre-weighed tubes for the 8-24 hour time-point. At 24 hours, collection tubes were again removed and weighed. Following the 24 hour urine collection, rats were anesthetized and blood was collected.
Renal function was evaluated in the cardiovascular/renal function arm. Urine volume was calculated gravimetrically at each time-point. Urine flow was then calculated by (urine volume/time times or ×100/body weight (g)). Flow values were then plotted as the mean ±standard deviation for each group. […] Statistical significance (p<0.05) was assessed using the paired Student's t test.

[5] = tested on: Wistar rats; details: 1, 3 or 10 mg/kg p.o., acute
[6] = Body weight, PET rat study; assay type: in vivo, Sprague Dawley rats; details: 300 and 1000 mg/kg p.o., subacute; males and females (FIG. 3)
Procedure: FIG. 3. […] Individual rat body weights were recorded daily in grams using an Ohaus Navigator™ digital balance.
Male and female Sprague Dawley rats from Charles River were used in these experiments. For the “standard” protocol, a total of 48 rats were used. Twenty-four rats (12 female rats and 12 male rats) were placed in the acute pulmonary function/CNS evaluation arm of the study, and 24 rats (12 female rats and 12 male rats) were placed in the subacute cardiovascular/renal arm of the study. Rats in both arms were further divided into 4 subgroups (3 male rats and 3 female rats) which were dosed with vehicle or compound at dose 1, dose 2; or dose 3. Rats in the pulmonary function/CNS evaluation arm of the study were administered a single dose of vehicle or compound. […]
Rats in the cardiovascular/renal function arm of the study (with telemetry implants) were administered daily doses of vehicle or compound for 5 days. Blood pressure, heart rate and motility were continuously monitored 24 hours/day over four days via telemetry recording. Urine was collected 0-8 and 8-24 hours post-dosing on Days 1 and 4 and assessed for changes in volume output and electrolyte excretion. […]
Cardiovascular function and motility were assessed in conscious freely moving rats using DSI telemetry recording equipment. […] Parameters monitored included blood pressure (BP), heart rate (HR) and activity. […]

For `C[C@H](N)Cc1ccccc1` [d-amphetamine], the Respiratory frequency ([1]; 2 and 8 mg/kg p.o., male and female, acute and subacute dosing (FIG. 1)) was “increased in a dose dependent manner”, the BP ([2]; males, 8 mg/kg p.o.) was “slightly increased” and the HR ([2]; males, 8 mg/kg p.o.) was “slightly increased”. The “Overt behavioral effects observed” value ([3]; 2 and 8 mg/kg p.o., male and female, acute and subacute) was “increased motility, sniffing, rearing, head weaving and vocalization”.

For `CN1C(=O)CN=C(c2ccccc2)c2cc(Cl)ccc21` [diazepam], the “Effects in the pulmonary system” value ([1]; 20 and 80 mg/kg p.o.) was “No relevant effects”, the “Effects in the CV system” value ([2]; 20 and 80 mg/kg p.o.) was “No relevant effects” and the “Modified Irwin profiling” value ([3]; rat, in vivo) was “dose dependent effects on motility, coordination, muscle tone and body temperature”.

In the case of `NS(=O)(=O)c1cc(C(=O)O)c(NCc2ccco2)cc1Cl` [furosemide], the Urine output [4] is reported as “dose dependently increased”.

In the case of `COC(=O)C1=C(C)NC(C)=C(C(=O)OC)C1c1ccccc1[N+](=O)[O-]` [nifedipine], the Body temperature [5] is reported as “No effects”, the Heart rate [5] is reported as “dose dependent increase” and the Motility [5] is reported as “No effects”. For the same molecule, the Respiration [5] was “No effects”.

For `C[C@]12C=CC(=O)C=C1CC[C@@H]1[C@@H]2[C@@H](O)C[C@@]2(C)[C@H]1CC[C@]2(O)C(=O)CO` [prednisolone], the Body weight [6] was “decrease in body weight” and the “Effects in the CV system” value ([2]; 300 and 1000 mg/kg p.o.) was “No relevant effects”.
